Assays:
[1] = tested on: cyclin D1; assay: Western blot analysis of cyclin D1 expression in TSPC; assay type: cell-based, rabbit; conditions: TSPC treated 24 h; compared with solvent-treated cells; normalized to β-actin
Protocol: Primary rabbit TSPC were treated with 10NM 29-mer or its variants for 24 h. Representative blots (A) and densitometric analysis with the SD (B) from three independent experiments are shown. Cyclin D1 expression was normalized to ([…]. *P<0.01 vs. solvent-treated cells. ^#P<0.05 vs. 29-mer-treated cells.
(§1) Achilles tendons from New Zealand White rabbits (6-8 months old, 3.0-4.0 kg) were used in this study. Achilles tendons were washed two times with sterile phosphate-buffered saline (PBS) containing 50 μg/ml gentamicin. The tendon and tendon sheath were cut into small pieces (1-2 mm^3). Each 100 mg of fragment was then digested in a solution containing 3 mg/ml of type I collagenase and 4 mg/ml of dispase in 1 ml balance salt solution (BSS; Alcone) at 37° C. for 4 hours. The digested tissues were washed three times with PBS and collected by centrifugation (800 g for 10 min). The digested tissues were placed in tissue-culture plates (Falcon Labware; NJ, USA) and resuspended in high-glucose DMEM supplemented with 10% FBS and 50 μg/ml gentamycin, and maintained at 37° C. with 5% CO2. After 5 days, the medium was changed to remove the loosened tissue residues. Subsequently, tendon cells were incubated with 10% FBS medium for 2 days, and then cultured with a basal medium (2% FBS, 1% ITSE, 300 μg/ml L-glutamine, 1% antibiotic-antimicotic solutions) for further 10 days. Culture medium was changed every 3 days. For passage, tendon cells were harvested with 0.25% trypsin/EDTA, cell counting by haemocytometer, approximately 5×10^3 cells were seeded in each well of a 96-well cell culture plate or 2×10^5 cells were seeded in each well of a 6-well cell culture plate for 24 h. These expanded tendon cells were then treated with 10 μM 29-mer or its variants in fresh basal medium for further 24 h and subjected to cell proliferation assay and western blot analysis, respectively.
Cell lysis, SDS-PAGE, and antibodies used for immunoblotting were performed as described (Ho et al., 15-deoxy-Delta(12,14)-prostaglandin J2 induces vascular endothelial cell apoptosis through the sequential activation of MAPKS and p53. J Biol. Chem., 2008; 283(44): 30273-30288). The band intensity in immunoblot was evaluated with a Model GS-700 imaging densitometer (Bio-Rad Laboratories, Hercules, Calif.) and analyzed using Labworks 4.0 software.
However, the 29-mer effect on cyclin D1 protein induction was almost abolished by alanine/glycine replacement at residue S93, A96, Q98, 1103, 1104 and R106, respectively (1.3±0.1, 1.5±0.3, 1.3±0.1, 0.9±0.1, 1.3±0.2, and 1.0±0.3). […] The data also imply that the PDSP at positions Ser93, Ala96, Gln98, Ile103, Ile104, and Arg106 are important for sustaining the PDSP effect on induction of TSPC proliferation.

[2] = tested on: Primary rabbit TSPC; assay: TSPC cell proliferation assay (fluorometric kit); assay type: cell-based; conditions: 10 μM peptide, low serum media, PDSP solvent (DMSO) set as 100%, mean±SE of three experiments
Protocol: Primary rabbit TSPC were cultured to near-confluence in a 75T cell culture flask and then verified by immunostaining of a TSPC marker, nucleostemin (>98%; green color). Nuclei were stained with Hoechst 33258 (blue color) and visualized by an epifluorescence microscopy. The nucleostemine-positive TSPC were treated with 10 μM 29-mer or its variants for 24 h. The numbers of TSPC after 24-h expansion were detected with a cell proliferation assay kit (BioVision; catalog number: K307). The TSPC treated with PDSP solvent was set as 100%. Results are expressed as mean±SE of three independent experiments.
as §1
Cell Proliferation Assay Kit (Fluorometric) was purchased from BioVision (Catalog #: K307) and used to evaluate cell proliferation according to the manufacturer's recommendations. The fluorescence was read at 480 nm for excitation and 538 nm for emission on a SPECTRAmax GEMINI XS fluorescence microplate spectrophotometer (Molecular Devices, Sunnyvale, Calif., USA).
Rabbit TSPC isolation was described above. TSPC in low serum media were treated with 10 μM of one of the 29-mer variants for 24 h. Cell proliferation was examined by a cell proliferation kit based on a kit provided nuclear dye that specifically binds to nucleic acid in the cell and generates green fluorescence.

Sequence: SLGAEQRTESIIHRALYYDLISSPDIHGT (listed as Homo sapiens) [29-mer, PEDF-derived short peptide, human PEDF residues 93-121]
- induction of the cyclin D1 protein [1]: 2.9±0.5 fold
- TSPC proliferation (numbers of TSPC after 24-h expansion) [2]: 135±6.1%

From US20210244791A1, “APPLICATION OF PEDF-DERIVED SHORT PEPTIDES IN TENDON HEALING” (BRIM Biotechnology, Inc., priority 2018, published 2021)
